Reference: ChEMBL document CHEMBL5465560, “Selectivity Literature for EUbOPEN Chemogenomic Library” (2024)

How the values were obtained:
[1] = biological target: Cyclin-dependent kinase 16 (Homo sapiens) (UniProt Q00536); details: at 10 µM
[2] = biological target: T1, Serine/threonine-protein kinase ULK1 (Homo sapiens) (UniProt O75385); experiment: Selectivity interaction (Kinase panel (DSF assay)) EUB0001558a ULK1
T1 sequence (whole entry): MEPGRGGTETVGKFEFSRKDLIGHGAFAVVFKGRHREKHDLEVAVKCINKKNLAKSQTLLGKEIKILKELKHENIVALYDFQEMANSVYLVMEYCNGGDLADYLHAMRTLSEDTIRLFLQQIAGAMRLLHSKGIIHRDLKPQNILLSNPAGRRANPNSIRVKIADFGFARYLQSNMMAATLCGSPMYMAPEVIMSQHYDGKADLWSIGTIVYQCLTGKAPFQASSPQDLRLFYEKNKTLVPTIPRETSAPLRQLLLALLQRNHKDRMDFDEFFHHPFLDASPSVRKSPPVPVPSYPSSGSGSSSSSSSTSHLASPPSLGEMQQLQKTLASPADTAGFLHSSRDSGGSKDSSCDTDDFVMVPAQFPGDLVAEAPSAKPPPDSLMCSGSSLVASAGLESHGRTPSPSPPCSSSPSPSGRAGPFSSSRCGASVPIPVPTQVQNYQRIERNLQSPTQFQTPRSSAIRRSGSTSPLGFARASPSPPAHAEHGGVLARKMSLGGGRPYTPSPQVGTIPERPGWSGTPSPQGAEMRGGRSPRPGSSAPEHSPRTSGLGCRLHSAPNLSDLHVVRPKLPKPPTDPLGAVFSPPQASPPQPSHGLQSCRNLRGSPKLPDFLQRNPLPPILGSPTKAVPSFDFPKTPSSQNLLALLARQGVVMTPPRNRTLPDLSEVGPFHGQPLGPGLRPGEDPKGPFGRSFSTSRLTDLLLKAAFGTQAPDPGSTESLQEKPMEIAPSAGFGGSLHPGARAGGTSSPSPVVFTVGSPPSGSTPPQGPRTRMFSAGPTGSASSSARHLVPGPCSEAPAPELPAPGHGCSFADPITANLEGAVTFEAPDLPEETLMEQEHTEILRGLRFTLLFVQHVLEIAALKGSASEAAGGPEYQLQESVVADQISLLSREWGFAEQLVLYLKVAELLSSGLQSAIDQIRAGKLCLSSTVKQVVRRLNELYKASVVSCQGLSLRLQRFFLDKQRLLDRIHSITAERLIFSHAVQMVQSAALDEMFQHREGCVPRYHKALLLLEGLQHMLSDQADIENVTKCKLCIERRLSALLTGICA

[3] = biological target: Calcium/calmodulin-dependent protein kinase kinase 2 (Homo sapiens) (UniProt Q96RR4); experiment: Selectivity interaction (Kinase panel (DSF assay)) EUB0001558a CAMKK2
[4] = biological target: Cyclin-dependent kinase 7 (Homo sapiens, UniProt P50613); experiment: Selectivity interaction (Kinase panel (KiNativ target engagement assay in Jurkat cells)) EUB0001635a CDK7; assay type: cell-based; details: Selectivity number of off-targets 0.0, Selectivity number of targets 233.0, Source Knowledge https://www.sciencedirect.com/science/article/pii/S2451945619300674?via%3Dihub, at 1 µM
[5] = biological target: Acetylcholine receptor subunit alpha (Homo sapiens, UniProt P02708); experiment: Selectivity interaction (Nicotinic (CNS) Receptor binding in human IMR32 cells ) EUB0000877a CHRNA1; assay type: cell-based, IMR-32
[6] = biological target: Protein-tyrosine kinase 2-beta (Homo sapiens) (UniProt Q14289); details: at 10 µM
[7] = biological target: Leucine-rich repeat serine/threonine-protein kinase 2 (Homo sapiens, UniProt Q5S007); experiment: Selectivity interaction (Adapta Assay) EUB0001632a LRRK2; details: at 10 µM
[8] = biological target: ATPase family AAA domain-containing protein 2B (Homo sapiens) (UniProt Q9ULI0); experiment: Selectivity interaction (Bromodomain panel (DSF asssay)) EUB0000270b ATAD2B
[9] = biological target: Protein arginine N-methyltransferase 6 (Homo sapiens, UniProt Q96LA8); experiment: Selectivity interaction (Transferase panel (protein, RNA, and DNA methyltransferases. and EP300 (acetyltransferase))) EUB0000270b PRMT6
[10] = biological target: Dual specificity mitogen-activated protein kinase kinase 1 (Homo sapiens, UniProt Q02750); experiment: Selectivity interaction (ActivX KiNativ screen (kinase selectivity in THP-1 cell lysates)) EUB0000639a MAP2K1; assay type: subcellular; details: lysate, at 0.04 µM
[11] = biological target: Myosin light chain kinase, smooth muscle (Homo sapiens, UniProt Q15746); experiment: Selectivity interaction (Kinase panel (Invitrogen)) EUB0000639a MYLK; details: at 200 nM
[12] = biological target: Tyrosine-protein kinase CSK (Homo sapiens) (UniProt P41240); experiment: Selectivity interaction (KinomeScan (DiscoverX)) EUB0000607a CSK; details: at 10 µM
[13] = biological target: Ephrin type-A receptor 5 (Homo sapiens) (UniProt P54756); experiment: Selectivity interaction (KinomeScan (DiscoverX)) EUB0000618a EPHA5; details: at 10 µM
[14] = biological target: T2, Calcium/calmodulin-dependent protein kinase type IV (Homo sapiens) (UniProt Q16566); experiment: Selectivity interaction (KinomeScan (DiscoverX)) EUB0001619a CAMK4; details: at 1 µM
T2 sequence (whole entry): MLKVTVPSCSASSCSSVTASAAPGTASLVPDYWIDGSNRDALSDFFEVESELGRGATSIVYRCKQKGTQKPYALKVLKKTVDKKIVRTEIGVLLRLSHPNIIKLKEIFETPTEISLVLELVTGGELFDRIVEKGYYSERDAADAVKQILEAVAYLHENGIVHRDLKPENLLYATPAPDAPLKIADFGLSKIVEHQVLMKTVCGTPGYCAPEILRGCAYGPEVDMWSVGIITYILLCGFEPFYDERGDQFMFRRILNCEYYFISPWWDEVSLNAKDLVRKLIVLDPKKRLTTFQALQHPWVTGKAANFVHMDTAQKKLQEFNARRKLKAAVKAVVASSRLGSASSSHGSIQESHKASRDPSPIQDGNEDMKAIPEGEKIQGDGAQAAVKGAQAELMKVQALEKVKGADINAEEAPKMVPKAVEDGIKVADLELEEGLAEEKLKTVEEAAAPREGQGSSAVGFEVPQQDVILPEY

[15] = biological target: Cyclin-dependent kinase 14 (Homo sapiens) (UniProt O94921); experiment: Selectivity interaction (KinomeScan (DiscoverX)) EUB0001619a CDK14; details: at 1 µM
Cyclin-dependent kinase 14 (Homo sapiens), sequence (O94921 whole entry): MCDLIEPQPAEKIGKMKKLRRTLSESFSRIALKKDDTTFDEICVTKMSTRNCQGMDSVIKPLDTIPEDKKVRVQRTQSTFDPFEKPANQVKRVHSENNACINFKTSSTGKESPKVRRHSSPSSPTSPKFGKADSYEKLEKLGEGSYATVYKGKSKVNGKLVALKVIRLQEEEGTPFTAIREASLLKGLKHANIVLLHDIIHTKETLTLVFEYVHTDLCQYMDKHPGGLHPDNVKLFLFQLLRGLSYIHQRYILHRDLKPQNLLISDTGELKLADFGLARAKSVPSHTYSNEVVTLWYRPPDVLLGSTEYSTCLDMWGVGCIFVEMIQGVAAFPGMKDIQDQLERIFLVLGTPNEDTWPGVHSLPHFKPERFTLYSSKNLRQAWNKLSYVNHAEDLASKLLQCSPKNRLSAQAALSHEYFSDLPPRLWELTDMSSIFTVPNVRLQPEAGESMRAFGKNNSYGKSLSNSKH

Protein arginine N-methyltransferase 6, sequence (Q96LA8 whole entry, looked up): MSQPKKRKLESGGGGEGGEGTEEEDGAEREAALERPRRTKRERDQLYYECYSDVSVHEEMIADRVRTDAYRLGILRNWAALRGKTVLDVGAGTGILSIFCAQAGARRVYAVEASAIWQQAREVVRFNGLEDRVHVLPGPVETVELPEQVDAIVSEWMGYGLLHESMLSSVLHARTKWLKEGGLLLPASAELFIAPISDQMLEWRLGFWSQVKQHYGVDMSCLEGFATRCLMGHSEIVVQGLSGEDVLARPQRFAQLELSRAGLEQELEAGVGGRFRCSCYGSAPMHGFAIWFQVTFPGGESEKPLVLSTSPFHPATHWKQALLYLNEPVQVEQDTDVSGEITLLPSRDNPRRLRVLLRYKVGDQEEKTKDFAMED
Protein-tyrosine kinase 2-beta (Homo sapiens), sequence (Q14289 whole entry, looked up): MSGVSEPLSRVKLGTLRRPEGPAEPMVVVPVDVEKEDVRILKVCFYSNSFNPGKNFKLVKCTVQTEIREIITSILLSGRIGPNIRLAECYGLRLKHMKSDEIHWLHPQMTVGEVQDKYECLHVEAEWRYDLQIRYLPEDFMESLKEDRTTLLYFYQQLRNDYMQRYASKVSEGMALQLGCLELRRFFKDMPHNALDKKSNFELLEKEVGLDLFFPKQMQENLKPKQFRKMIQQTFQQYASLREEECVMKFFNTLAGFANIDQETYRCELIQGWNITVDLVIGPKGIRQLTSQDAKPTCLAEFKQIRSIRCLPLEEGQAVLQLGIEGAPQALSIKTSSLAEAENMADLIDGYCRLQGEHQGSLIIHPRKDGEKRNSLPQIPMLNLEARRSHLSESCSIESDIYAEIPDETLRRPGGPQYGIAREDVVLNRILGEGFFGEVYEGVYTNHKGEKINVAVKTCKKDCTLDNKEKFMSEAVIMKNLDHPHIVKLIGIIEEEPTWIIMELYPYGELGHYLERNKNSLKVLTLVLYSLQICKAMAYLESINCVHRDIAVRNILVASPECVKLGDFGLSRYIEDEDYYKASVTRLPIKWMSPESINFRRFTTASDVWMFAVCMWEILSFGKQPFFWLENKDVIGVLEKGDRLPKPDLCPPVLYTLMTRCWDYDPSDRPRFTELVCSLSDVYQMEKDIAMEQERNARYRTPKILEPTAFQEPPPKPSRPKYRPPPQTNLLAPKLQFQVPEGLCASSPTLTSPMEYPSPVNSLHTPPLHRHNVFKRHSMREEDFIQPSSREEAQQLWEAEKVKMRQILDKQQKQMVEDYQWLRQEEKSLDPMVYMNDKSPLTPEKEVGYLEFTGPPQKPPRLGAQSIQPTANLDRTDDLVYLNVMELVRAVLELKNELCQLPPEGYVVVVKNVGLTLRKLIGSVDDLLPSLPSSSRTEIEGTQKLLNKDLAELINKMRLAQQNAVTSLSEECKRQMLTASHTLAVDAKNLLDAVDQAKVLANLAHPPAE
Tyrosine-protein kinase CSK (Homo sapiens), sequence (P41240 2-450 limits assumed): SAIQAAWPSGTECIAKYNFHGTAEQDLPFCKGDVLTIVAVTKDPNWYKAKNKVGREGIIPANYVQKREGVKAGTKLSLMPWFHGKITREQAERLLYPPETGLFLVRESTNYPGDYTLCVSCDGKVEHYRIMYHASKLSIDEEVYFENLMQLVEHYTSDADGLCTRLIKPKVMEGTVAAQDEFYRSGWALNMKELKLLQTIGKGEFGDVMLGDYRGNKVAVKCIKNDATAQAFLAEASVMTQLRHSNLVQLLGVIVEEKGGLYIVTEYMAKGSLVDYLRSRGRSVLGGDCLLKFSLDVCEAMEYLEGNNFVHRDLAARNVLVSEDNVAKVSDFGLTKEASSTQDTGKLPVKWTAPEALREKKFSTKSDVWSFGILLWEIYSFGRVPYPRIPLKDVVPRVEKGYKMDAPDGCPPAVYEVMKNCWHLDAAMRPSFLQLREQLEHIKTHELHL
ATPase family AAA domain-containing protein 2B (Homo sapiens), sequence (Q9ULI0 whole entry, the tested form may be a part): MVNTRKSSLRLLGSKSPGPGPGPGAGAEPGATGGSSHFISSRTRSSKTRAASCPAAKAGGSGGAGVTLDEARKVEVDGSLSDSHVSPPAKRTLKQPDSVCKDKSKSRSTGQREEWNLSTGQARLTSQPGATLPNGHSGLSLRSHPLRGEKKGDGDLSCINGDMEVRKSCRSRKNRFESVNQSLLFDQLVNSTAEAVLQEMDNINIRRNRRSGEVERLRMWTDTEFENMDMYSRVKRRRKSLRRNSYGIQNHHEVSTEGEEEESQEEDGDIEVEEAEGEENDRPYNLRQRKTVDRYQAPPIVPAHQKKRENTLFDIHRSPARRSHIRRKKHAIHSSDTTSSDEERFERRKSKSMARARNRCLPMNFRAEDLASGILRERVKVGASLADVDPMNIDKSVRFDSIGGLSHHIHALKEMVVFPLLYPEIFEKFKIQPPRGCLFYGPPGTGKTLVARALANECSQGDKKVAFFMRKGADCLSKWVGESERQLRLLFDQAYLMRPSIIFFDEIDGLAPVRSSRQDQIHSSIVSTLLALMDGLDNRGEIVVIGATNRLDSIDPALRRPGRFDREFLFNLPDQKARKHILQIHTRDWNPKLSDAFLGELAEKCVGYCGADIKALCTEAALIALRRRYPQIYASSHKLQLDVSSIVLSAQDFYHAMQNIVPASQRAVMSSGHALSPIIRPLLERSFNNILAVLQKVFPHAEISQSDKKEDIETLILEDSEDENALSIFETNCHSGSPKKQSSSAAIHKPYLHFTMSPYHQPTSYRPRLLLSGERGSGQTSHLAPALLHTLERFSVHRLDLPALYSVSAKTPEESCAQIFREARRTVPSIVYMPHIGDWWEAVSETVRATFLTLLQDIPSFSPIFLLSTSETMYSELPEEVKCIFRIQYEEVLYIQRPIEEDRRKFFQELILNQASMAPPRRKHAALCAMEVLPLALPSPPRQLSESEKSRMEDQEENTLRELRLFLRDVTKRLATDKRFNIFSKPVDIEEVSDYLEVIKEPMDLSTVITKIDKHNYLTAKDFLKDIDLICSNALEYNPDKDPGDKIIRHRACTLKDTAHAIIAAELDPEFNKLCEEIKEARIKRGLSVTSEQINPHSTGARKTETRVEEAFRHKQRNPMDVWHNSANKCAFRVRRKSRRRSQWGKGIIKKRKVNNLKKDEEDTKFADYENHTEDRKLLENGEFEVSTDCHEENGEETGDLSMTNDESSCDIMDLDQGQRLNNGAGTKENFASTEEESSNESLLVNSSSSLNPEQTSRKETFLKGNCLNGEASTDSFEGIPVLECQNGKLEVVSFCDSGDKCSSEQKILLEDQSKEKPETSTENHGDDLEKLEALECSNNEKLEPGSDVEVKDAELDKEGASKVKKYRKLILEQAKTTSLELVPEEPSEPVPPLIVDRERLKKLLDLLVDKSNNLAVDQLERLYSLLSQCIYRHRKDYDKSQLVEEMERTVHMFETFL
Cyclin-dependent kinase 16 (Homo sapiens), sequence (Q00536 whole entry): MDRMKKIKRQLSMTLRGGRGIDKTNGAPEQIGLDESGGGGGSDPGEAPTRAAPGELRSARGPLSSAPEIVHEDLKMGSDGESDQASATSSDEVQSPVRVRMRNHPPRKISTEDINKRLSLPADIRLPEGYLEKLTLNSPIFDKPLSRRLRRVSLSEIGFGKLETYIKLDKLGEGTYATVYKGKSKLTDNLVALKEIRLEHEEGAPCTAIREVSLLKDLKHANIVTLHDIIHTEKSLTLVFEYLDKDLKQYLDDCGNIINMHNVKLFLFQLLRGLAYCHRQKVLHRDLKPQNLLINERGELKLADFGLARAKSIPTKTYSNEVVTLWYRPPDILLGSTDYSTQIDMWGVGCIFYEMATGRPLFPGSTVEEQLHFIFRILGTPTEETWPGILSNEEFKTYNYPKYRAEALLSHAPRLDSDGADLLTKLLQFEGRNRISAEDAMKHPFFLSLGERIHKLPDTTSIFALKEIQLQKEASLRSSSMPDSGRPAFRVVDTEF
Cyclin-dependent kinase 7, sequence (P50613 whole entry): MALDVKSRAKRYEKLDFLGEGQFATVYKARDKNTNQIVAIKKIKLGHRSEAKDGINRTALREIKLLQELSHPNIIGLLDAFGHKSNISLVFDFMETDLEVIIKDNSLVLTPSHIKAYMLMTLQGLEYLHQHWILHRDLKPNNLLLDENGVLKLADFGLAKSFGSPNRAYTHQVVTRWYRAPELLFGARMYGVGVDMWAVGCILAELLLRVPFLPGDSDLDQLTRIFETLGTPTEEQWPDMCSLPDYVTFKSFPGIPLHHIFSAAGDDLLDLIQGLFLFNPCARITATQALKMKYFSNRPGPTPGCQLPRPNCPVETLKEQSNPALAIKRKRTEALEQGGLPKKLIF
Dual specificity mitogen-activated protein kinase kinase 1, sequence (Q02750 whole entry): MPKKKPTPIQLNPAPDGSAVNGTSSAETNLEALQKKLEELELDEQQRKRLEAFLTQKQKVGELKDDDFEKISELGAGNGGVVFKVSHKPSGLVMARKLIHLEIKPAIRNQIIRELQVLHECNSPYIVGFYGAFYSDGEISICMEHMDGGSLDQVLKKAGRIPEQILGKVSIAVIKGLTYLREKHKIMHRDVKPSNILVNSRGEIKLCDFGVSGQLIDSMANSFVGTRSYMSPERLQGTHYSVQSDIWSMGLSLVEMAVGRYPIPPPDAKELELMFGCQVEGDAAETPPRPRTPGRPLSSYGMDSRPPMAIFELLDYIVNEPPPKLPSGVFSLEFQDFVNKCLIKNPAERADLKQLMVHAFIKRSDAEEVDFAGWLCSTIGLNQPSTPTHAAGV

`CCN(CC)CCCCNc1ncc2cc(-c3cc(OC)cc(OC)c3)c(NC(=O)NC(C)(C)C)nc2n1` was tested, and the % of control [1] was 100%.

`CC(C)(O)[C@H](F)CN1Cc2cc(NC(=O)c3cnn4cccnc34)c(N3CCOCC3)cc2C1=O` was tested, and the dTM [2] was 0.5 K and the dTM [3] was 4.3 K.

With `C=CC(=O)Nc1ccc(C(=O)Nc2[nH]nc3c2CN(C(=O)N[C@H](CN(C)C)c2ccccc2)C3(C)C)cc1` the % of engagement [4] was 93.3%.

In the case of `CCC(=O)N1CC[C@H](Nc2ncnc3c2CN(c2cnc(OC)c(C(F)(F)F)c2)CC3)C1` [LENIOLISIB], the IC50 [5] is reported as over 30 µM.

Work on `Cc1cc([C@@H](C)Nc2ccccc2C(=O)O)c2nc(N3CCOCC3)cc(=O)n2c1` [AZD-6482] yielded a % of control [6] of 100%.

`Cn1cc(-n2cnc3c(NCc4nc5cc(Cl)c(Cl)cc5[nH]4)nc(N4CCOCC4)nc32)cn1` gave a % of inhibition [7] of 100%.

In the case of `Cc1cc(CN)cc(C)c1-c1ncn(C)c1-c1cncn1C`, the dTM [8] is reported as -1.47 K, the % activity ([9]; at 1 µM) is reported as over 90% and the % activity ([9]; at 10 µM) is reported as over 80%.

With `CC[C@@H]1[C@H](F)C(=O)N[C@@H]1COc1nccc2cc(C(N)=O)c(OC)cc12` [ZIMLOVISERTIB] the % of inhibition [10] was 5.6% and the % of inhibition [11] was 1%.

`CNC(=O)Nc1ccc(-c2nc(N3CC4CCC(C3)O4)c3cnn(C4CCC5(CC4)OCCO5)c3n2)cc1` was tested, and the % of control [12] was 100%.

`O[C@H]1CC[C@H](Nc2ncc3nc(Nc4c(F)cc(F)cc4F)n([C@H]4CCOC4)c3n2)CC1` was tested, and the % of control [13] was 100%.

For `N#Cc1cccc(-c2c[nH]c3ncnc(N4CCOCC4)c23)c1`, the % of control [14] was 100% and the % of control [15] was 100%.
